# Activity calls are given as the source filed them.
# Experiments:
# [1] = target: T1, Heat shock factor protein 1 (Mus musculus, UniProt P38532); test: enhancement of HSF1-driven luciferase signal – cell-based, NIH3T3, luminescence, dose retest, confirmation (AID 435004); type: functional;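 also: stress induced by proteasome inhibitor MG132 added 30 min after compound; luciferase reporter driven by HSF1 response element in NIH3T3 cells; actives raise luminescence as potentiators of the MG132 stress response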
# T1 sequence (P38532 whole entry): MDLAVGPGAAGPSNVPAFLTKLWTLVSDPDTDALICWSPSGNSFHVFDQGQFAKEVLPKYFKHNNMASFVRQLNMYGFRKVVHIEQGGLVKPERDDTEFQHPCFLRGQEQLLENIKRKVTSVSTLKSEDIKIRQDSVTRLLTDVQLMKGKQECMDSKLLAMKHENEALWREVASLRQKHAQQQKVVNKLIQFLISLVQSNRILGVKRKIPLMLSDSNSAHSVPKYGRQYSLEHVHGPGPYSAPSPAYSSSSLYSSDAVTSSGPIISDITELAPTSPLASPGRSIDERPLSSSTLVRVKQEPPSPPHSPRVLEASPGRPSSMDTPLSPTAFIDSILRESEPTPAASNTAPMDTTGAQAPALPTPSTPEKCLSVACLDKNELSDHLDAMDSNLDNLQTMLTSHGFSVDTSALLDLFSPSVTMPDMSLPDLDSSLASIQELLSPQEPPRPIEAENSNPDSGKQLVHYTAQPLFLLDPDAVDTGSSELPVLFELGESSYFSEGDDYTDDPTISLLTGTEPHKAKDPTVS
# [2] = target: T2, Corticotropin-releasing factor receptor 2/Corticotropin-releasing factor-binding protein (Homo sapiens, UniProt P24387+Q13324); test: Dose Response confirmation of uHTS hits for small molecule antagonists of the CRF-binding protein and CRF-R2 receptor complex.; type: functional; conditions: read-out: IC50_Mean
# T2 sequence (Q13324 whole entry): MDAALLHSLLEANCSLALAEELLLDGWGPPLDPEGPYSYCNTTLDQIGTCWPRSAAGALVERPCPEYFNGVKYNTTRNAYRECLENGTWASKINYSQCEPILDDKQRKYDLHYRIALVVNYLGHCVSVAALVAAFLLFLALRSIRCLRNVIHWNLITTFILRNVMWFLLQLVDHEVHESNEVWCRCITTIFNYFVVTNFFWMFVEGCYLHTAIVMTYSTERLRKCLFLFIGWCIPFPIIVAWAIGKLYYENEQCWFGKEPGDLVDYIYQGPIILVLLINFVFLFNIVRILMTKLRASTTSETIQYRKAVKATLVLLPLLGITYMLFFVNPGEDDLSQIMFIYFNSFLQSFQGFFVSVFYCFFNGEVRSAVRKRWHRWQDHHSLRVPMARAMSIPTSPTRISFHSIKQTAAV
# T2 sequence (P24387 whole entry): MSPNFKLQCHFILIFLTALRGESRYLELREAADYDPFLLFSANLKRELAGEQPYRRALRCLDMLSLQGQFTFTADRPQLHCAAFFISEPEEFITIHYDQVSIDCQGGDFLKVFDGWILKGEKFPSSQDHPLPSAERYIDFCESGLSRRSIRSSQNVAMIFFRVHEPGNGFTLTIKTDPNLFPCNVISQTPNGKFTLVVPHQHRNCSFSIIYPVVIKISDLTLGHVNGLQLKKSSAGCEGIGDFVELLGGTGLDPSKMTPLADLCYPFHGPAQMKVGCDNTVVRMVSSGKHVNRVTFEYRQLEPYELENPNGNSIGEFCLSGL
# [3] = target: T2, Corticotropin-releasing factor receptor 2/Corticotropin-releasing factor-binding protein; test: activators of CRF receptor 2 with binding protein – uHTS hits, confirmation (AID 602473); type: functional; conditions: read-out: EC50_Mean
# [4] = target: T3, Protein RecA (Mycobacterium tuberculosis, UniProt P9WHJ3); test: Fluorescence Cell-Free Homogeneous Dose Retest to Identify Inhibitors of RecA-Intein Splicing Activity. [Related pubchem assays (depositor defined):AID2097, AID2223, AID489010, AID492950]; type: functional
# T3 sequence (P9WHJ3 whole entry): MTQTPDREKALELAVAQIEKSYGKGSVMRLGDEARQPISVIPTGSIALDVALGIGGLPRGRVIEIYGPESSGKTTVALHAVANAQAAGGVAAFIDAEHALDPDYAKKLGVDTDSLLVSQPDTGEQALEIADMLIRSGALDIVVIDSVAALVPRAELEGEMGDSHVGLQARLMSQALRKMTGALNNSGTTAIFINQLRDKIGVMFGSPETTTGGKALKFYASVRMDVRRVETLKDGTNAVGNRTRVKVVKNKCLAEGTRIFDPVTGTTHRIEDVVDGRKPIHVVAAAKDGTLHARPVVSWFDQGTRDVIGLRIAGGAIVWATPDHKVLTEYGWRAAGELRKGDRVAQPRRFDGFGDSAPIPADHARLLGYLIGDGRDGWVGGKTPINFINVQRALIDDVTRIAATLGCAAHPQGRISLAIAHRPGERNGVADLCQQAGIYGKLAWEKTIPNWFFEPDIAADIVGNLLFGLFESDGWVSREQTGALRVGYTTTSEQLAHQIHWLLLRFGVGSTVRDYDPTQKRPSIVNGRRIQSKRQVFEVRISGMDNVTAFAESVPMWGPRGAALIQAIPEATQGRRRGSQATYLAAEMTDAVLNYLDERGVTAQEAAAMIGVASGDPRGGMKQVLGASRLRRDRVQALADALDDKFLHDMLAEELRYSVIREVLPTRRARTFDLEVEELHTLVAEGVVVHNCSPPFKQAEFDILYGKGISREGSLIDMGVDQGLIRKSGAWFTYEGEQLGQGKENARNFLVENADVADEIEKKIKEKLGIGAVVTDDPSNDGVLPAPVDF
# [5] = target: T4, Polyadenylate-binding protein 1 (Homo sapiens, UniProt P11940); test: MLLE domain peptide-binding blockers, IC50 – biochemical, fluorescence polarization, FITC-PAM2 peptide, dose response (AID 602259); type: functional; conditions: read-out: IC50_Mean
# [6] = target: T5, Replicative DNA helicase DnaB (Mycobacterium tuberculosis, UniProt P9WMR3); test: DnaB intein splicing inhibitors, dose response, biochemical, cell-free fluorescence (AID 449749); type: functional
# T5 sequence (P9WMR3 whole entry): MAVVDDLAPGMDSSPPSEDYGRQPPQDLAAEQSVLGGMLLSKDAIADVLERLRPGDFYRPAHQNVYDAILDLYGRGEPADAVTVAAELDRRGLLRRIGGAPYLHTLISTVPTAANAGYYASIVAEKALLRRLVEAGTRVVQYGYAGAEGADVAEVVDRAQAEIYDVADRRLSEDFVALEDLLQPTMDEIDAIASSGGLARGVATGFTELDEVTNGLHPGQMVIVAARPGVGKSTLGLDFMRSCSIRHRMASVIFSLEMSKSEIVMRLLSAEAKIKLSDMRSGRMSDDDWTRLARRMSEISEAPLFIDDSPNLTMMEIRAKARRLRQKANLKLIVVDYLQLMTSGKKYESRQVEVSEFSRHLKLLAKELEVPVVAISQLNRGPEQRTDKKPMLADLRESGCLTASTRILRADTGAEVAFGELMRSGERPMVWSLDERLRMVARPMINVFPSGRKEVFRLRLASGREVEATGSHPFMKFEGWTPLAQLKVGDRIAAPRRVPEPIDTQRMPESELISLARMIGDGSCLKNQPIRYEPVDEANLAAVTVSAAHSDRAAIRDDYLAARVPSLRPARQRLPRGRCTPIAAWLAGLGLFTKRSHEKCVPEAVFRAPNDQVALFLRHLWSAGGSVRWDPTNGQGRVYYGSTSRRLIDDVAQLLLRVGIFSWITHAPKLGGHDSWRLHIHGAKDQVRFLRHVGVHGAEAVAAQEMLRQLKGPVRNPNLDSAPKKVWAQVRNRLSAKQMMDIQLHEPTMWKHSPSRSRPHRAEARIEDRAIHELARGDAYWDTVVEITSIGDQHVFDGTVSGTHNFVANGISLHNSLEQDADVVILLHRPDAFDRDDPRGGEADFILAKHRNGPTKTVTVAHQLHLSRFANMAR
# [7] = target: T4, Polyadenylate-binding protein 1; test: MLLE binding blockers, Cy5 peptide tracer – biochemical, fluorescence polarization, Cy5-PAM2 peptide, secondary, miRNA deadenylation inhibitor project, dose response (AID 602260); type: functional; conditions: read-out: IC50_Mean
# [8] = target: Cytochrome P450 2D6 (Homo sapiens, UniProt P10635);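 also: CYP2D6 member of a cytochrome P450 panel assay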
# [9] = target: Cytochrome P450 2C19 (Homo sapiens, UniProt P33261); test: Cytochrome panel assay with activity outcomes. Panel member name: p450-cyp2c19 Compounds with AC50 equal or less than 10 uM are considered active; type: functional; conditions: read-out: AC50
# Chain of Cytochrome P450 2C19 (P33261 whole entry): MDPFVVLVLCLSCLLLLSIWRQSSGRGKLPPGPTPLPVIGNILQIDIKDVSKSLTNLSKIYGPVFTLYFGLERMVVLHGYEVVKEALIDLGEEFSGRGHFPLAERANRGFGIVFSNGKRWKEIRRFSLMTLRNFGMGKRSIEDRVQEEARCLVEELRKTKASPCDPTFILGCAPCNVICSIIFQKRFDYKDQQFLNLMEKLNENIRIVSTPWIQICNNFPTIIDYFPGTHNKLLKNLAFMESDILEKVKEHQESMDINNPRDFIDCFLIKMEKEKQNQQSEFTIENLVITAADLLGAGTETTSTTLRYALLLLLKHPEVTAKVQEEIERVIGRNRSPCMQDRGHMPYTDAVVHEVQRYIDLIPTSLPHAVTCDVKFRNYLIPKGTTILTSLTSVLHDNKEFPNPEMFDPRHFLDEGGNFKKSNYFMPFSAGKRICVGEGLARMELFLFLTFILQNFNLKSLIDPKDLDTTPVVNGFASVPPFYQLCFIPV
# Chain of Cytochrome P450 2D6 (P10635 whole entry): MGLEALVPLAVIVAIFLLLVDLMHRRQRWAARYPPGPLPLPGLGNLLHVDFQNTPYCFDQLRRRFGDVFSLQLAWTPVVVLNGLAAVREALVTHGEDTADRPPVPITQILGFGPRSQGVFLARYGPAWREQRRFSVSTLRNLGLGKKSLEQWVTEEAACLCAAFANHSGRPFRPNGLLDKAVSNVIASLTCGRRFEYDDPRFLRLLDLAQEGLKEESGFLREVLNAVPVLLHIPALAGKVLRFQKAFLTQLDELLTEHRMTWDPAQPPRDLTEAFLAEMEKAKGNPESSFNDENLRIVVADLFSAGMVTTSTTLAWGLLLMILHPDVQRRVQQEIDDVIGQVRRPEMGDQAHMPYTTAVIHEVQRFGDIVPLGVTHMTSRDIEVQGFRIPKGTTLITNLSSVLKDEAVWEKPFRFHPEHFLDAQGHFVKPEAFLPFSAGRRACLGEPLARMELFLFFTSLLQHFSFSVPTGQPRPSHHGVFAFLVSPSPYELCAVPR
# T4 sequence (P11940 whole entry, the tested form may be a part): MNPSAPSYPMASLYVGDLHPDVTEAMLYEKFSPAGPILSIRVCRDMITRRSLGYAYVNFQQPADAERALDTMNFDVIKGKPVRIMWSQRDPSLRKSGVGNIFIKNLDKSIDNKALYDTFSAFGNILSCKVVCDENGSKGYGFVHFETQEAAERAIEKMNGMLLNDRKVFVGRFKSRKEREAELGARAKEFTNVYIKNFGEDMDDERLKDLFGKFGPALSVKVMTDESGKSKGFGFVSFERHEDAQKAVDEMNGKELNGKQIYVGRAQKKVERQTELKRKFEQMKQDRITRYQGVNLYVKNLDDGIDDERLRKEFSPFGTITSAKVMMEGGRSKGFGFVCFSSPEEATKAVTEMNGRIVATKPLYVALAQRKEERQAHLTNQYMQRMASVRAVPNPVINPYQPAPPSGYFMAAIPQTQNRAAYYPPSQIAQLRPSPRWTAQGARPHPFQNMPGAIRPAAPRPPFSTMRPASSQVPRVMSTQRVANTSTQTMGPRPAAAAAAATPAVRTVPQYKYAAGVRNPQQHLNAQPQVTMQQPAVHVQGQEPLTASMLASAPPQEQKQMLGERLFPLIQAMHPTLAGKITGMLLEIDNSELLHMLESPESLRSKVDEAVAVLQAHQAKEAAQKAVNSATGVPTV
smiles,measurement,setting,value
Cc1ccc(O)c(CNc2nccs2)c1,EC50,[1],20.5 µM (active)
S=C(NCc1ccccc1)Nc1ccc(Cl)cc1,IC50,[2],> 47.1 µM (inactive)
same,EC50,[3],> 53 µM (inactive)
CCOC(=O)CNc1nnc(SCC(=O)OCC)[nH]c1=O,EC50,[4],0.845 µM (active)
same,IC50,[5],> 66 µM (inactive)
same,AC50,[6],8.14 µM (active)
same,IC50,[7],> 66 µM (inactive)
Cc1n[nH]c2c1C1(CCC3(CC1)OCCO3)C(C#N)=C(N)O2,EC50,[4],> 380 µM (inactive)
same,AC50,[6],> 380 µM (inactive)
COc1ccc(C(C(=O)NCC2CCCO2)N(C(=O)Cn2nnc3ccccc32)c2ccc(NC(C)=O)cc2)cc1OC (stereo not drawn),EC50,[1],> 260 µM (inactive)
CSc1ccc(C(c2c(C)n[nH]c2O)c2c(C)n[nH]c2O)cc1,EC50,[4],0.241 µM (active)
same,AC50,[6],0.432 µM (active)
CCOc1cccc(=O)c2c(C)oc(C)c12,IC50,[5],41.6 µM (inactive)
same,IC50,[7],37.3 µM (inactive)
Cc1ccc2c(c1)N(C(=O)CSc1nncn1C)C(C)(C)c1ssc(=S)c1-2,EC50,[4],10.1 µM (active)
same,AC50,[6],8.82 µM (active)
CCC(C)(C)n1nnnc1CN(Cc1ccco1)Cc1cc2cc3c(cc2nc1O)OCO3,IC50,[5],> 66 µM (inactive)
same,IC50,[7],> 66 µM (inactive)
CCC(Sc1nc2cc3c(cc2c(=O)n1Cc1ccco1)OCO3)C(=O)Nc1ccccc1OC (stereo not drawn),AC50,[8],5.01 µM (inconclusive)
CSc1ccccc1N=C(S)Nc1ccc(S(N)(=O)=O)cc1,IC50,[5],> 66 µM (inactive)
same,IC50,[7],> 66 µM (inactive)
COCCNc1ncnc2ccc(-c3ccccc3C(F)(F)F)cc12,AC50,[8],39.8 µM (inconclusive)
COc1ccc(CNC(=O)CCC(=O)N2CC(C)Oc3ccccc32)cc1 (stereo not drawn),EC50,[1],> 260 µM (inactive)
CCc1nc(N2CCN(S(=O)(=O)c3ccc(Br)cc3)CC2)c2c(C)c(C)sc2n1,EC50,[1],> 260 µM (inactive)
O=[N+]([O-])c1cc(/C=N/c2cccc3c(O)cccc23)ccc1Cl,EC50,[4],8.76 µM (active)
same,AC50,[6],46.8 µM (active)
COc1ccc(C(=O)c2ccccc2)c(O)c1 [OXYBENZONE],AC50,[9],0.398 µM (inconclusive)
same,AC50,[8],12.6 µM (inconclusive)

# Source: ChEMBL document CHEMBL1201862, “PubChem BioAssay data set” (2004)
